In assay [1] the target is Serine/threonine-protein kinase MRCK beta (Homo sapiens, UniProt Q9Y5S2).
In assay [2] the target is Cyclin-dependent kinase 6 (Homo sapiens, UniProt Q00534).
Assay [3] deals with Eukaryotic translation initiation factor 2-alpha kinase 1 (Homo sapiens, UniProt Q9BQI3).
In assay [4] the target is Mitogen-activated protein kinase kinase kinase kinase 5 (Homo sapiens, UniProt Q9Y4K4).
The target of assay [5] is T1, Serine/threonine-protein kinase Nek3 (Homo sapiens, UniProt P51956).
T1 sequence (P51956 whole entry): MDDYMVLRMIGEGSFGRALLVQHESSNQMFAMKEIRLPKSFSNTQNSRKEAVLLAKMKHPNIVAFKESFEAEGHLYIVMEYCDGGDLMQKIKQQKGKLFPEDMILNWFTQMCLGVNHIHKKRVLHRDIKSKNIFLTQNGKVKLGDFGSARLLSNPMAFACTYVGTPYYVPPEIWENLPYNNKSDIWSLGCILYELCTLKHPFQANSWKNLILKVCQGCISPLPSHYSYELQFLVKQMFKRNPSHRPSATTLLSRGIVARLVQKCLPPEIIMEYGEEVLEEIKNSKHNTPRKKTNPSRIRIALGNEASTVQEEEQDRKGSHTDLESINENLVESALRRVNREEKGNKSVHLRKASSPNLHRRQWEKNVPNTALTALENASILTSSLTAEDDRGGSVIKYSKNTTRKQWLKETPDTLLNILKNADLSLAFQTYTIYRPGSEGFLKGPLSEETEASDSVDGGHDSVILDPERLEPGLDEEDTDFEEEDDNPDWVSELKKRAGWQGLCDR

Assay [6] has as its target T2, Bifunctional phosphoribosylaminoimidazole carboxylase/phosphoribosylaminoimidazole succinocarboxamide synthetase (Homo sapiens, UniProt P22234).
T2 sequence (P22234 whole entry): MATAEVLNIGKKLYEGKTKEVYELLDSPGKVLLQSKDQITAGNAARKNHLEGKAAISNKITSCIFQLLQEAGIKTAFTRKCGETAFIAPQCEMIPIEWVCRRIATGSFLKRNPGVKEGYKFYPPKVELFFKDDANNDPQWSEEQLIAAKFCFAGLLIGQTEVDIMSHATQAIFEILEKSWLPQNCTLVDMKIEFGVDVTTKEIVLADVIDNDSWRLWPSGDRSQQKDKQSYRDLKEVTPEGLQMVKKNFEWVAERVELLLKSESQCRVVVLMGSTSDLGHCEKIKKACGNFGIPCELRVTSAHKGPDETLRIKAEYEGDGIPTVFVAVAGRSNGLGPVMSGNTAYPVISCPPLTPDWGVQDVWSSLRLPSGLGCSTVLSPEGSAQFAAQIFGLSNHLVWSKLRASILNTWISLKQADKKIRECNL

Assay [7] has as its target T3, Ras-related protein Rab-10 (Homo sapiens, UniProt P61026).
T3 sequence (P61026 whole entry): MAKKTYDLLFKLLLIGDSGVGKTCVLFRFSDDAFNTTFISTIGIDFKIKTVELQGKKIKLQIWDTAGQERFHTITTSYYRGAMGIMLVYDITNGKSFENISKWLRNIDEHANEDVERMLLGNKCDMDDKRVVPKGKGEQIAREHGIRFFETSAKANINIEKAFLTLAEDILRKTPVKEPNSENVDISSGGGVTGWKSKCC

Assay [8] addresses Rho-associated protein kinase 2 (Homo sapiens, UniProt O75116).
For assay [9], the target named is Ribosomal protein S6 kinase alpha-4 (Homo sapiens, UniProt O75676).
Ribosomal protein S6 kinase alpha-4, sequence (O75676 whole entry): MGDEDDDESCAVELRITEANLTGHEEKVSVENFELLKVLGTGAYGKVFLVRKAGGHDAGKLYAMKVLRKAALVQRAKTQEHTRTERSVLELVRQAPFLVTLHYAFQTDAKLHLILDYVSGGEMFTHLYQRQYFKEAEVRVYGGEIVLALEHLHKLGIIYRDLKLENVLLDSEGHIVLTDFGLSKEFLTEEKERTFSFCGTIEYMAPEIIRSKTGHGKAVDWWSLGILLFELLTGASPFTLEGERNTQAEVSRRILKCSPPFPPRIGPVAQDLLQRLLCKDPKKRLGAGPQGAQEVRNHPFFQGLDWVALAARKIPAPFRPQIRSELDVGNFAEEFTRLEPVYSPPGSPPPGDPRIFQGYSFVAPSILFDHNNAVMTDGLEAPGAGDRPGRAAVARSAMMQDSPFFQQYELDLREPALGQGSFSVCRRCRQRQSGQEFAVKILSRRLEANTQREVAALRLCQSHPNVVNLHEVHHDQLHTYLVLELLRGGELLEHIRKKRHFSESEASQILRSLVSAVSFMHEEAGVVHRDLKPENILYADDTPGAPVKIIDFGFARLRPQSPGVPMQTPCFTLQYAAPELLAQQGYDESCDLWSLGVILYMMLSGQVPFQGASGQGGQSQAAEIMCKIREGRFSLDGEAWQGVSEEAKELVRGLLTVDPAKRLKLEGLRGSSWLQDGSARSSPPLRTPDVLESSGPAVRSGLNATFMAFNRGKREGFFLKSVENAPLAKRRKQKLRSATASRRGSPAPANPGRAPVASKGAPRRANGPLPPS
The target in assay [10] is T4, Serine/threonine-protein kinase 4 (Homo sapiens, UniProt Q13043).
T4 sequence (Q13043 whole entry): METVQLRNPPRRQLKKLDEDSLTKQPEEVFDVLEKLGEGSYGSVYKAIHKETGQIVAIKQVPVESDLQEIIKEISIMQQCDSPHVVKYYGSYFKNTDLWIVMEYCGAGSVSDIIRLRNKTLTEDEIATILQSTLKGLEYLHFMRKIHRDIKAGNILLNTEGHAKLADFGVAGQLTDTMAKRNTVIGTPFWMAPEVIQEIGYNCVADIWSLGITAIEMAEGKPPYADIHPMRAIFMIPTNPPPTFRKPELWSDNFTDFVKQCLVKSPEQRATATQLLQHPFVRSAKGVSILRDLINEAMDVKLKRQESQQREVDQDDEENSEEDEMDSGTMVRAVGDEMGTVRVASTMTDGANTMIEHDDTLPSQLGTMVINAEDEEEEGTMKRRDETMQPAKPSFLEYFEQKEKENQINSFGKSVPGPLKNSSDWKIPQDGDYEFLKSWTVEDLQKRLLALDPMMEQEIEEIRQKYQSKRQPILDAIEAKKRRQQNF

For assay [11], the target named is T5, Serine/threonine-protein kinase TAO3 (Homo sapiens, UniProt Q9H2K8).
T5 sequence (Q9H2K8 whole entry): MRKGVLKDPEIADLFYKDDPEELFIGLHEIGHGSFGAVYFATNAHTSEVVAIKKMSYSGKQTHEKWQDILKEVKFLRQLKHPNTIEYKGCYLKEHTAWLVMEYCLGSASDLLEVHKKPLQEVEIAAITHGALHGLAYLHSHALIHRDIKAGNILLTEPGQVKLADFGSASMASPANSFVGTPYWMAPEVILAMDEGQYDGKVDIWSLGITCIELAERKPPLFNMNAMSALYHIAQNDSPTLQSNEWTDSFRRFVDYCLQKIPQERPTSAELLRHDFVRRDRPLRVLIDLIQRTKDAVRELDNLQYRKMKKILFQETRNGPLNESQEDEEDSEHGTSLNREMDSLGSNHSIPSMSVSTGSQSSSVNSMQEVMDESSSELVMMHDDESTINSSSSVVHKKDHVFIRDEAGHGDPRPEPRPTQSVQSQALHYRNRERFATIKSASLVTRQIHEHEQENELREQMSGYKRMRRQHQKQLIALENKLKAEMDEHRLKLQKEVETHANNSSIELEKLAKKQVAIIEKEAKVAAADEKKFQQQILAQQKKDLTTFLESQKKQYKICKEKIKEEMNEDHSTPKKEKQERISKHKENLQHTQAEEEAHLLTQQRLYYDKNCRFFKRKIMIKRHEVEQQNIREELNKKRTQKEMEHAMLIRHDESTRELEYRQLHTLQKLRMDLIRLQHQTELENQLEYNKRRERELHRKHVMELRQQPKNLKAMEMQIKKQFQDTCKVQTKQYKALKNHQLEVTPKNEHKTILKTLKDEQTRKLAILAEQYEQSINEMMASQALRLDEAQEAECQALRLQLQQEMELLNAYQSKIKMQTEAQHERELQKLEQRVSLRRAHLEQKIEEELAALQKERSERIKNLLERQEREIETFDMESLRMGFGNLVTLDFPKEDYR

Molecules are shown by their SMILES. Active and inactive are the calls of the source. For most assays here, no stated cut-off is given here; in the data, actives have a measured Kd and inactives only a lower limit.

The results in this text go back to ChEMBL document CHEMBL3991601, “The target landscape of clinical kinase drugs” (Science, 2017).

Eukaryotic translation initiation factor 2-alpha kinase 1, sequence (Q9BQI3 whole entry): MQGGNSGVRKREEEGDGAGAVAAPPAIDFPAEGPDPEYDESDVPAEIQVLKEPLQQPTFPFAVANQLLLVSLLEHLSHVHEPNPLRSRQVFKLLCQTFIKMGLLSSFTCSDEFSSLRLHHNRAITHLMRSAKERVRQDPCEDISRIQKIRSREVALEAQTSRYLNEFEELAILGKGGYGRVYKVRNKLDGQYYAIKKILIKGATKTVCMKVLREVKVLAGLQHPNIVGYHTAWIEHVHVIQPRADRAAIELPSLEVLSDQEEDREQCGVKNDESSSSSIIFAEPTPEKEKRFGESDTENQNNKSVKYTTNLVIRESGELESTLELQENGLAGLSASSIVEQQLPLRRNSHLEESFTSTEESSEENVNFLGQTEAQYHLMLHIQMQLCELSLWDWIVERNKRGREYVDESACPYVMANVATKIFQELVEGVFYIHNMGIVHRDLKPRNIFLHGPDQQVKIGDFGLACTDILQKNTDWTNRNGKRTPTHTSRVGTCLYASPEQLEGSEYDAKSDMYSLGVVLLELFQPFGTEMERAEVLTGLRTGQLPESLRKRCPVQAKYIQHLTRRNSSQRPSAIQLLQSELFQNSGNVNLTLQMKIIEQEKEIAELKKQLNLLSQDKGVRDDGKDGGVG
Mitogen-activated protein kinase kinase kinase kinase 5, sequence (Q9Y4K4 whole entry): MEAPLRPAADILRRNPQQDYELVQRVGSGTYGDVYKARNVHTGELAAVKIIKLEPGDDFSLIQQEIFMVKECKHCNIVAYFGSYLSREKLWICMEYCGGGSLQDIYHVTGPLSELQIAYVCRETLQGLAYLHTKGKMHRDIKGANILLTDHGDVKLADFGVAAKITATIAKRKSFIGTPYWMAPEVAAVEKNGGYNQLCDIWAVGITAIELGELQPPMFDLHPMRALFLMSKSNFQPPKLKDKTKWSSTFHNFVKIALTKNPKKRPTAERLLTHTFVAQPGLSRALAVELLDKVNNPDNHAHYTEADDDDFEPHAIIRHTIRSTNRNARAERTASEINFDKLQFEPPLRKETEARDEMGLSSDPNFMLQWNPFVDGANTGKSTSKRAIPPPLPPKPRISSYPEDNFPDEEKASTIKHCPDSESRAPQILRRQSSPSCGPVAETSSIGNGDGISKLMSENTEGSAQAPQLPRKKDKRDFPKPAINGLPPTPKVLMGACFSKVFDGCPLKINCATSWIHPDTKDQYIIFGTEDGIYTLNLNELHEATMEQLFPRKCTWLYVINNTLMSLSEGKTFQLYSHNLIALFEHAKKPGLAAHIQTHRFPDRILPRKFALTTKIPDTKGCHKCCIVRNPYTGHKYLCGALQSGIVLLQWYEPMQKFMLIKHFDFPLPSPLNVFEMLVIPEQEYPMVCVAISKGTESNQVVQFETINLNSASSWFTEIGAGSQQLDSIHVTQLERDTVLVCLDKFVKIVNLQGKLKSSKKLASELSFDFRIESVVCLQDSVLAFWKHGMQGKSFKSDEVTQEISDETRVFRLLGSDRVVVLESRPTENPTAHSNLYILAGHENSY
Serine/threonine-protein kinase MRCK beta, sequence (Q9Y5S2 whole entry): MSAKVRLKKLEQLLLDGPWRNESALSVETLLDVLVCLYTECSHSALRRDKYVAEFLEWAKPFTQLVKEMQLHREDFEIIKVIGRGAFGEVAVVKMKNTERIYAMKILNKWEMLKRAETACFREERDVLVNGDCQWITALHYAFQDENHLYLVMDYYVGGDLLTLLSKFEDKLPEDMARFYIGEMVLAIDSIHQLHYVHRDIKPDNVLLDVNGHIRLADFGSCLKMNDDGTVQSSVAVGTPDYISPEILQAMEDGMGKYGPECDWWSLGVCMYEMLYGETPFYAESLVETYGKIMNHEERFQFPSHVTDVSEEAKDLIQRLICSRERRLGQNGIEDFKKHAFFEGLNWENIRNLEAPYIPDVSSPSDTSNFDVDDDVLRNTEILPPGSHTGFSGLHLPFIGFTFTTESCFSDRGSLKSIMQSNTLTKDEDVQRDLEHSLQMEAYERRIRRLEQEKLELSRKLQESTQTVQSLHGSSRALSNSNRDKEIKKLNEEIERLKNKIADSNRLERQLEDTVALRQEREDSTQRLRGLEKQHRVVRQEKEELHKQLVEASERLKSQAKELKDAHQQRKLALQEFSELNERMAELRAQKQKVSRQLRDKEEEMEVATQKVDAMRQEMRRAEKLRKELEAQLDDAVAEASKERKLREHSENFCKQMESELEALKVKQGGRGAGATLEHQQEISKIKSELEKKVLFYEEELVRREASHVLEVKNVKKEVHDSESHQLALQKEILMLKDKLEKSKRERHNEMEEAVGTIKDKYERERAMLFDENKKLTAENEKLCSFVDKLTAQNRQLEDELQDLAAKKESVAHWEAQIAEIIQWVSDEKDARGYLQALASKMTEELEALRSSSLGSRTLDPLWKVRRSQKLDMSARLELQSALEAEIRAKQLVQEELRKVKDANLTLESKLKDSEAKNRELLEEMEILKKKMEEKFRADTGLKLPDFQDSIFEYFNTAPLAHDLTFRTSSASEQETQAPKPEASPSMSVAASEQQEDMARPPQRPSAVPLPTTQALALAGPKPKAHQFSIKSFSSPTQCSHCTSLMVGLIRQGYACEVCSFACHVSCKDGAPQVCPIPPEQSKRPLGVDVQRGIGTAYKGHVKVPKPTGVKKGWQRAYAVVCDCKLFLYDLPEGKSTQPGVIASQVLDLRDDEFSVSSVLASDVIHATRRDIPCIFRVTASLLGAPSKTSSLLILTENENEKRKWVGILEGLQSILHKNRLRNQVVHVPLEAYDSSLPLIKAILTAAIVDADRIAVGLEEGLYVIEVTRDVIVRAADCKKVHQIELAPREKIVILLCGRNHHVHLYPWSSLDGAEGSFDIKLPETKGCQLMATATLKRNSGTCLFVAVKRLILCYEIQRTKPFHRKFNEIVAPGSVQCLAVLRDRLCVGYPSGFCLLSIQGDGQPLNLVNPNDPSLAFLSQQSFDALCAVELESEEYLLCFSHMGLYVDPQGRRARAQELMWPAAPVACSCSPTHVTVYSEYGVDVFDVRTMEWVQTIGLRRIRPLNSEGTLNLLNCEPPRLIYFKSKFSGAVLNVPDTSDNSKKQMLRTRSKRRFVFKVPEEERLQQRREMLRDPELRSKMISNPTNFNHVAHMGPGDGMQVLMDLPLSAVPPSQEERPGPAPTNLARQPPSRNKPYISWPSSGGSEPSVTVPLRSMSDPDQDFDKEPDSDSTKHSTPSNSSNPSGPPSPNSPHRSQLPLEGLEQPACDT
Cyclin-dependent kinase 6, sequence (Q00534 whole entry): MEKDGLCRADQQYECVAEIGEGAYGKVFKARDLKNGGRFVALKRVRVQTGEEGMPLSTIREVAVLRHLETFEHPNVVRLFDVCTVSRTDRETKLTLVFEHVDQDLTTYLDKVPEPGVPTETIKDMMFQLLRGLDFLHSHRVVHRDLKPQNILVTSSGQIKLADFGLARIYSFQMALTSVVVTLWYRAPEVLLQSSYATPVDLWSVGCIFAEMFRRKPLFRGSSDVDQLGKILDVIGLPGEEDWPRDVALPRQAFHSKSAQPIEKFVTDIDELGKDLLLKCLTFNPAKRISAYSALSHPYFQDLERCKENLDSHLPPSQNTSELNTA

Regarding `CNC(=O)CN1CCC(Oc2cc3c(Nc4cccc(Cl)c4F)ncnc3cc2OC)CC1` [SAPITINIB], the Kd in [1], in assay [2], in assay [3], in assay [4], in assay [5] and in assay [6] was > 30 µM (inactive) throughout. Moreover, the Kd in assay [7], in assay [8], in [9], in assay [10] and in assay [11] was > 30 µM (inactive) in each case.

In the case of `CC(=O)Nc1cccc(-n2c(=O)n(C3CC3)c(=O)c3c(Nc4ccc(I)cc4F)n(C)c(=O)c(C)c32)c1` [TRAMETINIB], the Kd in assay [1], in assay [2], in assay [3], in assay [4], in assay [5] and in assay [6] was > 30 µM (inactive) in each case. Besides, the Kd in assay [7], in [8], in [9], in assay [10] and in assay [11] was > 30 µM (inactive) throughout.

Regarding `COC(=O)N[C@@H](C)CNc1nccc(-c2cn(C(C)C)nc2-c2cc(Cl)cc(NS(C)(=O)=O)c2F)n1` [ENCORAFENIB], the Kd in assay [1], in [2], in assay [3], in assay [4], in assay [5] and in [6] was > 30 µM (inactive) each time. In addition, the Kd (usually the concentration at which binding is half-saturated) in [7] was > 30 µM (inactive); in assay [8] it was > 30 µM (inactive); in assay [9] it was > 30 µM (inactive); in [10], > 30 µM (inactive); in assay [11], 3.32 µM (active).

As to `COC(=O)[C@@]1(O)C[C@H]2O[C@]1(C)n1c3ccccc3c3c4c(c5c6ccccc6n2c5c31)C(=O)NC4` [K-252A], the Kd is > 30 µM (inactive) in [1]; 0.399 µM (active) in [2]; > 30 µM (inactive) in assay [3]; 0.193 µM (active) in [4]; > 30 µM (inactive) in assay [5]; > 30 µM (inactive) in assay [6]. Moreover, the Kd in [7] was > 30 µM (inactive); in assay [8] it was > 30 µM (inactive); in assay [9] it was 0.432 µM (active); in assay [10], 0.029 µM (active); in assay [11], > 30 µM (inactive).

For the compound `CCS(=O)(=O)N1CC(CC#N)(n2cc(-c3ncnc4[nH]ccc34)cn2)C1` [BARICITINIB], the Kd was > 30 µM (inactive) in assay [1]; > 30 µM (inactive) in [2]; 0.335 µM (active) in assay [3]; > 30 µM (inactive) in [4]; > 30 µM (inactive) in assay [5]; > 30 µM (inactive) in assay [6]. For the same compound, the Kd in [7] is > 30 µM (inactive); in assay [8], 0.756 µM (active); in [9], > 30 µM (inactive); in [10], > 30 µM (inactive); in assay [11], > 30 µM (inactive).

In the case of `CNS(=O)(=O)Nc1nccc(Cc2c(C)c3ccc(Oc4ncccn4)cc3oc2=O)c1F` [AVUTOMETINIB], the Kd in [1], in [2], in assay [3], in assay [4], in [5] and in assay [6] was > 30 µM (inactive) throughout. Besides, the Kd in [7], in assay [8], in assay [9], in [10] and in [11] was > 30 µM (inactive) each time.

With `COc1ccc(-c2ccc3c(N4CCOC[C@@H]4C)nc(N4CCOC[C@@H]4C)nc3n2)cc1CO` [AZD-8055], the Kd in assay [1], in assay [2], in assay [3], in assay [4], in [5] and in assay [6] was > 30 µM (inactive) throughout. The Kd in assay [7], in assay [8], in assay [9], in assay [10] and in assay [11] was > 30 µM (inactive) in each case.

As for `O=C(O)[C@]1(Cc2cccc(Nc3nccs3)n2)CC[C@@H](Oc2cccc(Cl)c2F)CC1` [MK-5108], the Kd in assay [1], in [2], in assay [3], in [4], in assay [5] and in assay [6] was > 30 µM (inactive) in each case. Also, the Kd is > 30 µM (inactive) in [7]; > 30 µM (inactive) in assay [8]; > 30 µM (inactive) in assay [9]; 2.37 µM (active) in assay [10]; > 30 µM (inactive) in assay [11].

With `O=C1NC(=O)/C(=C/c2ccc3nccc(-c4ccncc4)c3c2)S1` [GSK-1059615], the Kd in assay [1], in [2], in assay [3], in assay [4], in assay [5] and in assay [6] was > 30 µM (inactive) throughout. The Kd in assay [7] was > 30 µM (inactive); in assay [8] it was > 30 µM (inactive); in assay [9], 0.499 µM (active); in assay [10], > 30 µM (inactive); in assay [11], > 30 µM (inactive).
